Test results from patent publication US8592469B2, “Diazonamide analogs” (Joyant Pharmaceuticals, Inc., priority 2012, dated 2013).

Key:
[1] = test system: A2058 cells; assay: Cell viability assay (Cell-Titer-Glo) in A2058 cells; type: cell-based; conditions: Homo sapiens, 48 hour treatment, test compounds 1 nM to 1 μM
Procedure: (§1) Cell viability assays were run using standard protocols known to those of skill in art. Cells were plated in 96 well plates at the density of 3,000-10,000 cells per well. Twenty four hours later, cells were treated with increasing concentration of test compounds (1 nM to 1 μM). After another 48 hour, cell survival was measured using Cell-Titer-Glo® reagent (Promega) following the protocol provided by the manufacture. The IC50 value was determined as the concentration of test compound that kills 50% of the cell population.
(§2) Cell viability data generated according to the protocol described above was generated for representative compounds in A2058 and U937 cells. The compounds shown in Table 1 were prepared by the methods described herein for structurally similar compounds. The reference compound was a synthetic diazonamide analog having the structure: […]

[2] = test system: U937 cells; assay: Cell viability assay (Cell-Titer-Glo) in U937 cells; type: cell-based; conditions: Homo sapiens, U-937, 48 hour treatment, test compounds 1 nM to 1 μM
Procedure: as §1, §2

Work on `CC(C)[C@H](O)C(=O)N[C@H]1Cc2ccc3c(c2)[C@]2(C4=C(c5nc(C#N)co5)N=C(O4)[C@H](C(C)C)NC1=O)c1cc(F)ccc1N[C@@H]2O3` [Compound 86] yielded an IC50 [1] of 0.56 nM and an IC50 [2] of 21.8 nM.
With `CC(C)[C@H](O)C(=O)N[C@H]1Cc2ccc3c(c2)[C@]2(C4=C(c5nc(C#N)co5)N=C(O4)[C@H](C(C)(C)C)NC1=O)c1cc(F)ccc1N[C@@H]2O3` [Compound 87] the IC50 [1] was under 0.3 nM and the IC50 [2] was 1.9 nM.
Work on `COC(=O)c1coc(-c2nc3oc2[C@@]24c5ccccc5NC2Oc2ccc(cc24)C[C@H](N(C)C(=O)[C@@H](O)C(C)C)C(=O)N[C@H]3C(C)C)n1` (some centres unmarked) [Compound 88] yielded an IC50 [1] of 0.8 nM and an IC50 [2] of 0.6 nM.
Compound `CC(C)[C@H](O)C(=O)N(C)[C@H]1Cc2ccc3c(c2)[C@]2(C4=C(c5nc(CO)co5)N=C(O4)[C@H](C(C)C)NC1=O)c1ccccc1NC2O3` (some centres unmarked) [Compound 89] has an IC50 [1] of 3 nM and an IC50 [2] of 1 nM.
For `COC(=O)c1coc(-c2nc3oc2[C@@]24c5ccccc5NC2Oc2ccc(cc24)C[C@H](N(C)C(=O)[C@@H](O)C(C)C)C(=O)N[C@H]3C(C)(C)C)n1` (some centres unmarked) [Compound 90], the IC50 [1] was 10.4 nM and the IC50 [2] was 17.1 nM.
`CC(C)[C@H](O)C(=O)N(C)[C@H]1Cc2ccc3c(c2)[C@]2(C4=C(c5nc(C#N)co5)N=C(O4)[C@H](C(C)C)NC1=O)c1ccccc1NC2O3` (some centres unmarked) [Compound 91] gave an IC50 [1] of 0.59 nM and an IC50 [2] of 1.97 nM.
For `COC(=O)c1coc(-c2nc3oc2[C@@]24c5ccccc5NC2Oc2ccc(cc24)C[C@H](NC(=O)[C@@H](O)C(C)C)C(=O)N(C)[C@H]3C(C)C)n1` (some centres unmarked) [Compound 92], the IC50 [1] was 113 nM and the IC50 [2] was 69.9 nM.
`COC(=O)c1coc(-c2nc3oc2[C@@]24c5ccccc5NC2Oc2ccc(cc24)C[C@H](N(C)C(=O)[C@@H](O)C(C)C)C(=O)N(C)[C@H]3C(C)C)n1` (some centres unmarked) [Compound 93] was tested, and the IC50 [1] was 35.8 nM and the IC50 [2] was 18.6 nM.
Compound `COC(=O)c1coc(-c2nc3oc2[C@]24c5ccccc5NC2Oc2ccc(cc24)C[C@H](NC(=O)[C@@H](O)C(C)C)C(=O)N(C)[C@H]3C(C)C)n1` (some centres unmarked) [Compound 94] has an IC50 [1] of over 300 nM and an IC50 [2] of over 300 nM.
With `CC(C)[C@H](O)C(=O)N[C@H]1Cc2ccc3c(c2)C2(C4=C(c5nc6cnccc6o5)N=C(O4)[C@H](C(C)C)NC1=O)c1ccccc1N[C@H]2O3` (some centres unmarked) [Compound 95] the IC50 [1] was 142 nM and the IC50 [2] was 65 nM.
Work on `CC(C)[C@H](O)C(=O)N[C@H]1Cc2ccc3c(c2)[C@]2(C4=C(c5ccccc5)N=C(O4)[C@H](C(C)C)NC1=O)c1ccccc1NC2O3` (some centres unmarked) [Compound 96] yielded an IC50 [1] of over 1000 nM and an IC50 [2] of over 1000 nM.
With `COC(=O)c1csc(-c2nc3oc2C24c5ccccc5N[C@H]2Oc2ccc(cc24)C[C@H](NC(=O)[C@@H](O)C(C)C)C(=O)N[C@H]3C(C)C)n1` (some centres unmarked) [Compound 97] the IC50 [1] was 225 nM and the IC50 [2] was 59.5 nM.
Work on `CC(C)[C@H](O)C(=O)N[C@H]1Cc2ccc3c(c2)C2(C4=C(c5nc(CO)cs5)N=C(O4)[C@H](C(C)C)NC1=O)c1ccccc1N[C@H]2O3` (some centres unmarked) [Compound 98] yielded an IC50 [1] of 284 nM and an IC50 [2] of 231 nM.
Work on `COC(=O)c1coc(-c2nc3oc2C24c5ccccc5N[C@H]2Oc2ccc(cc24)C[C@H](NC(=O)[C@@H](O)C(C)C)C(=O)N[C@@H]3C(C)C)n1` (some centres unmarked) [Compound 99] yielded an IC50 [1] of over 1000 nM and an IC50 [2] of over 1000 nM.
`CC(C)[C@H](O)C(=O)N[C@H]1Cc2ccc3c(c2)[C@]2(C4=C(c5nc(CC(F)(F)F)co5)N=C(O4)[C@H](C(C)C)NC1=O)c1ccccc1NC2O3` (some centres unmarked) [Compound 100] showed an IC50 [1] of 465 nM and an IC50 [2] of 220 nM.
Work on `CC(C)c1coc(-c2nc3oc2C24c5ccccc5N[C@H]2Oc2ccc(cc24)C[C@H](NC(=O)[C@@H](O)C(C)C)C(=O)N[C@H]3C(C)C)n1` (some centres unmarked) [Compound 101] yielded an IC50 [1] of 684 nM and an IC50 [2] of 500 nM.
`COC(=O)c1coc(-c2nc3oc2[C@]24c5ccccc5NC2Oc2ccc(cc24)C[C@H](NC(=O)[C@@H](O)C(C)C)C(=O)N[C@H]3C(C)(C)C)n1` (some centres unmarked) [Compound 103] gave an IC50 [1] of 221 nM and an IC50 [2] of 69 nM.
With `COC(=O)c1coc(-c2nc3oc2CC/C=C/C[C@H](NC(=O)[C@@H](O)C(C)C)C(=O)N[C@H]3C(C)C)n1` [Compound 104] the IC50 [1] was over 300 nM and the IC50 [2] was over 300 nM.
`COC(=O)c1coc(-c2nc3oc2CCCCC[C@H](NC(=O)[C@@H](O)C(C)C)C(=O)N[C@H]3C(C)C)n1` [Compound 105] was tested, and the IC50 [1] was over 300 nM and the IC50 [2] was over 300 nM.
